Laboratory results published in patent US9416130B2, “4-(8-methoxy-1-((1-methoxypropan-2-yl)-2-(tetrahydro-2H-pyran-4-yl)-1 H-imidazo[4,5-C]quinolin-7-yl)-3,5-dimethylisoxazole and its use as bromodomain inhibitor” (GlaxoSmithKline LLC, priority 2011, dated 2016).
Read-outs that look alike come from different tables or passages of the source.

Tests used:
[1] = system: LPS induced IL-6 secretion from whole blood; experiment: LPS induced IL-6 secretion from whole blood; format: cell-based; conditions: LPS 200 ng/ml, 24 hours, IL-6 immunoassay
Protocol: Measurement of LPS Induced IL-6 Secretion from Whole Blood
Activation of monocytic cells by agonists of toll-like receptors such as bacterial lipopolysaccharide (LPS) results in production of key inflammatory mediators including IL-6. Such pathways are widely considered to be central to the pathophysiology of a range of auto-immune and inflammatory disorders.
Compounds to be tested are diluted to give a range of appropriate concentrations of which 1 μl of the diluted stocks is added to a 96 well plate. Following addition of whole blood (130 ul) the plates are incubated at 37 degrees (5% CO2) for 30 min before the addition of 10 μl of 2.8 ug/ml LPS, diluted in complete RPMI 1640 (final concentration=200 ng/ml), to give a total volume of 140 μl per well. After further incubation for 24 hours at 37 degrees, 140 μl of PBS are added to each well. The plates are sealed, shaken for 10 minutes and then centrifuged (2500 rpm×10 min). 100 μl of the supernatant are removed and IL-6 levels assayed by immunoassay (typically by MesoScale Discovery technology) either immediately or following storage at −20 degrees. Concentration response curves for each compound was generated from the data and an IC50 value was calculated

[2] = system: LPS-induced serum IL-6; experiment: In vivo mouse model to demonstrate modulation of pro-inflammatory response (i.v. LPS); design: species or system Male CD1 mice; conditions: for reduced maximum (Cmax) IL-6 levels / reduced total exposures (AUC) of IL-6: 1 h before i.v. LPS 100 μg/kg, mouse
Protocol: Male CD1 mice (25-30 g, n=4 per group) received a single i.v. bolus injection of LPS (100 μg/kg) via the tail vein 1 h after pre-treatment with a single oral administration of either vehicle (1% (w/v) methylcellulose in sterile water) or the test compound (3, 10 and 30 mg/kg). Serial blood samples were obtained from the tail vein by direct venepuncture at various time points up to 5 h post-LPS administration for analysis of IL-6 and the test compound concentrations by Meso Scale Discovery (MSD) analysis and LC-MS/MS respectively.

[3] = system: Multiple myeloma cell lines; experiment: Oncology cell growth assay (384-well, CellTiter-Glo); format: cell-based, Human
Protocol: (§1) Oncology Cell Growth Assay
(§2) Human cell lines (n=80 comprising cell lines described in Table 2 below) were cultured in RPMI-1640 containing 10% fetal bovine serum, 1000 viable cells per well were plated in 384-well black flat bottom polystyrene plates (Greiner #781086) in 48 μl of culture media. All plates were placed at 5% CO2, 37° C. overnight. The following day one plate was harvested with CellTiter-Glo (CTG, Promega #G7573) for a time equal to 0 (T0) measurement and compound (20 point titration from 14.7 uM to 7 pM) was added to the remaining plates. The final concentration of DMSO in all wells was 0.15%. Cells were incubated for 72 hours or the indicated time and each plate was developed with CellTiter-Glo reagent using a volume equivalent to the cell culture volume in the wells. Plates were shaken for approximately 2 minutes and chemiluminescent signal was read on the Analyst GT (Molecular Devices) or EnVision Plate Reader (Perkin Elmer).
(§3) Results are expressed as a percent of the T0 and plotted against the compound concentration. The T0 value was normalized to 100% and represents the number of cells at time of compound addition and the concentration response data were fit with a 4 parameter curve fit using XLfit software (model 205). The concentration that inhibited cell growth by 50% (gIC50) is the midpoint of the ‘growth window’ (between the T0 and DMSO control). The Ymin−T0 value is determined by subtracting the T0 value (100%) from the Ymin value (%) determined from the fit of the concentration response curve. Values from the wells with no cells were subtracted from all samples for background correction.

[4] = system: Cervical cancer cell lines; experiment: as above; format: cell-based; conditions: Homo sapiens; range over 4 cervical cancer cell lines; read-out: gIC50
Protocol: as §1, §2, §3

[5] = system: Esophageal cell lines; experiment: as above; format: cell-based; conditions: Homo sapiens
Protocol: as §1, §2, §3

[6] = system: NUT-midline carcinoma cell lines; experiment: as above; format: cell-based; conditions: Homo sapiens; range over 2 NUT-midline carcinoma cell lines; read-out: gIC50
Protocol: as §1, §2, §3

[7] = system: Neuroblastoma cell lines; experiment: as above; format: cell-based; conditions: Homo sapiens
Protocol: as §1, §2, §3

[8] = system: Small cell lung cancer (SCLC) cell lines; experiment: as above; format: cell-based; conditions: Homo sapiens
Protocol: as §1, §2, §3

[9] = system: Acute monocytic leukemia cell line; experiment: Oncology cell growth assay (analogous procedure, 96 well plates); format: cell-based; conditions: Homo sapiens, 1 acute monocytic leukemia line, read-out: gIC50
Protocol: as §2, §3
(§4) The compound of Example 2 was also tested in accordance with an analogous procedure using 96 well plates along with appropriate modifications to volumes and concentrations that would be apparent to those skilled in the art.

[10] = system: Acute promyelocytic leukemia cell line; experiment: as above; format: cell-based; conditions: Homo sapiens, 1 acute promyelocytic leukemia line, read-out: gIC50
Protocol: as §2, §3, §4

[11] = system: Breast cancer (ductal) cell line; experiment: as above; format: cell-based; conditions: Homo sapiens, 1 breast cancer (ductal) line, read-out: gIC50
Protocol: as §2, §3, §4

[12] = system: Burkitt's lymphoma cell lines; experiment: as above; format: cell-based; conditions: Homo sapiens, Burkitts lymphoma cell, range over 3 Burkitt's lymphoma lines, read-out: gIC50
Protocol: as §2, §3, §4

[13] = system: Chronic myeloid leukemia cell line; experiment: as above; format: cell-based; conditions: Homo sapiens, 1 chronic myeloid leukemia line, read-out: gIC50
Protocol: as §2, §3, §4

[14] = system: Cutaneous T cell lymphoma cell line; experiment: as above; format: cell-based; conditions: Homo sapiens, 1 cutaneous T cell lymphoma line, read-out: gIC50
Protocol: as §2, §3, §4

[15] = system: Ovarian carcinoma cell line; experiment: as above; format: cell-based; conditions: Homo sapiens, 1 ovarian carcinoma line, read-out: gIC50
Protocol: as §2, §3, §4

[16] = positive control, maximal reduction observed, mouse LPS model

Compound: COCC(C)n1c(C2CCOCC2)nc2cnc3cc(-c4c(C)noc4C)c(OC)cc3c21 (centres unmarked) [Example 1, 4-(8-methoxy-1-(1-methoxypropan-2-yl)-2-(tetrahydro-2H-pyran-4-yl)-1H-imidazo[4,5-c]quinolin-7-yl)-3,5-dimethylisoxazole]
- IC50 [1]: 0.1 to 1 µM

Compound: COC[C@@H](C)n1c(C2CCOCC2)nc2cnc3cc(-c4c(C)noc4C)c(OC)cc3c21 [Example 2, 4-(8-methoxy-1-((R)-1-methoxypropan-2-yl)-2-(tetrahydro-2H-pyran-4-yl)-1H-imidazo[4,5-c]quinolin-7-yl)-3,5-dimethylisoxazole]
- IC50 [1]: 0.1 to 1 µM
- reduced maximum (Cmax) IL-6 levels ([2]; 3 mg/kg single oral): 46%
- reduced total exposures (AUC) of IL-6 ([2]; 3 mg/kg single oral): 35%
- reduced maximum (Cmax) IL-6 levels ([2]; 10 mg/kg single oral): 79%
- reduced total exposures (AUC) of IL-6 ([2]; 10 mg/kg single oral): 70%
- reduced maximum (Cmax) IL-6 levels ([2]; 30 mg/kg single oral): 73%
- reduced total exposures (AUC) of IL-6 ([2]; 30 mg/kg single oral): 63%
- IC50 ([3]; Homo sapiens, median of 16 multiple myeloma cell lines, read-out: gIC50 (median)): 0.414 µM
- IC50 ([3]; Homo sapiens, range over 16 multiple myeloma cell lines, 72 hours, read-out: gIC50): ≥ 0.0011 µM
- IC50 ([3]; range for 15 out of 16 multiple myeloma cell lines, read-out: gIC50): 0.0011 to 2 µM
- IC50 [4]: 0.266 to 0.847 µM
- IC50 ([5]; median of 8 esophageal cell lines, read-out: gIC50 (median)): 0.759 µM
- IC50 ([5]; range over 8 esophageal cell lines, read-out: gIC50): 0.208 to 1.54 µM
- IC50 [6]: 0.059 to 0.066 µM
- IC50 ([7]; median of 12 neuroblastoma cell lines, read-out: gIC50 (median)): 0.193 µM
- IC50 ([7]; range over 12 neuroblastoma cell lines, read-out: gIC50): 0.025 to 0.435 µM
- IC50 ([8]; median of 38 SCLC cell lines, read-out: gIC50 (median)): 0.538 µM
- IC50 ([8]; range for 35 of the 38 SCLC cell lines, read-out: gIC50): 0.076 to 2.5 µM
- IC50 ([8]; range over 38 SCLC cell lines, 72 hours, read-out: gIC50): ≥ 0.076 µM
- IC50 [9]: 0.123 µM
- IC50 [10]: 0.141 µM
- IC50 [11]: 0.537 µM
- IC50 [12]: 0.181 to 0.807 µM
- IC50 [13]: 0.776 µM
- IC50 [14]: 0.162 µM
- IC50 [15]: 0.707 µM

Compound: C[C@@H]1C[C@H]2[C@@H]3CCC4=CC(=O)C=C[C@]4(C)[C@@]3(F)[C@@H](O)C[C@]2(C)[C@@]1(O)C(=O)CO [dexamethasone, reference compound]
- reduction in IL-6 AUC [2, 16]: 70%
- reduction in IL-6 Cmax [2, 16]: 73%
